Here are results for 2 compounds from article PMC11995226, “Linker-Determined Folding and Hydrophobic Interactions Explain a Major Difference in PROTAC Cell Permeability” (ACS Medicinal Chemistry Letters, 2025).

On the set-up of data set [1]: method as in PMID 39693386. As to conditions: Data reported recently; cited from earlier work.
The nature of data set [2]: FaSSIF and FeSSIF solubility. In kind it is physicochemical. How it is done:
1. Experimental and Computational Methods
Fasted and Fed State Simulated Intestinal Fluid (FaSSIF and FeSSIF) Solubility.
Suspensions of amorphous 1 and 2 were stirred at 37 °C in FaSSIF and FeSSIF for 24 h ± 4 h
prior to filtration and analysis of the filtrate. The solubility was determined via HPLC-MS
analysis of the filtrate using a calibration curve (external standard). […]

A short description of data set [3]: EPSA (experimental polar surface area, chromatographic). In kind it is physicochemical. As to the method:
1. Experimental and Computational Methods […]
EPSA. EPSA retention times for 1 and 2 were determined at Sygnature Discovery. In brief, the
EPSA assay was performed on a Waters Acquity UPC2 system equipped with a PDA and a
QDa detector, using a Phenomenex Chirex (S)-VAL and (R)-NEA LC column (50 x 4.6 mm).
A gradient of MeOH, containing 20 mM ammonium formate, in CO2 was used as eluent.

Details of data set [4]: method as in PMID 39693386. The note with it: logarithm of Pe; Data reported recently; cited from earlier work.
The mark [5] stands for this setting: FaSSIF, pH 6.5, 37 °C, read-out: Solubility FaSSIF, pH 6.5.
[6] abbreviates: FeSSIF, pH 5.0, 37 °C, read-out: Solubility FeSSIF, pH 5.0.

Molecules are shown by their SMILES. Converted amounts (≈) assume the structure as drawn. Read-outs that look alike come from different tables or passages of the source.

What is called solubility is the concentration that dissolves in the medium under given conditions. For `Cc1ncsc1-c1ccc(CNC(=O)[C@@H]2C[C@@H](O)CN2C(=O)[C@@H](NC(=O)CCCCCCCCOc2cnc3c(C4CCN(C(=O)c5ccc(OC(F)(F)F)cc5)CC4)ncnc3c2)C(C)(C)C)cc1` [PROTAC 1], the “Solubility PBS, pH 6.5” value in data set [1] is reported as less than 0.1 μM. Further, the solubility at 24 h in data set [2] (setting [5]) worked out at 18.6 µM (≈ 18.4 µg/mL); in data set [2] (setting [6]), 174 µM (≈ 172 µg/mL). In data set [3], this compound registered an EPSA of 93.1 A^2. For the same compound, the “PAMPA Log[Pe (cm/s)]” value in data set [4] was -8.3 log10(Pe in cm/s).

For `Cc1ncsc1-c1ccc(CNC(=O)[C@@H]2C[C@@H](O)CN2C(=O)[C@@H](NC(=O)CCOCCOCCOc2cnc3c(C4CCN(C(=O)c5ccc(OC(F)(F)F)cc5)CC4)ncnc3c2)C(C)(C)C)cc1` [PROTAC 2], the results for the solubility at 24 h in data set [2] (setting [5]) and in data set [2] (setting [6]) were 53.2 µM (≈ 52.7 µg/mL) and 349 µM (≈ 346 µg/mL), respectively. This compound also had an EPSA in data set [3] of 91.5 A^2. For the same compound, the “PAMPA Log[Pe (cm/s)]” value in data set [4] is recorded as -5.4 log10(Pe in cm/s).
